Experimental data as given in US6989375B2, “Enhanced expression of transgenes” (priority 1996, dated 2006).

System: H1299 cells
Assay: β-gal expression by X-gal staining after Ad/CMV/β-gal infection of agent-treated cells
Format: cell-based, human
Details: for Enhancement of β-gal gene expression after treatment with antineoplastic agent: wide range of drug concentrations, 24 h, infected with Ad/CMV/β-gal 48 hours after drug removal
Experimental: Gene Delivery Protocol: In vitro gene delivery was performed by incubating cells in six-well plates (Falcon Plastics, Lincoln Park, N.J.) for two hours with Adv/CMV/β-gal in appropriate medium supplemented with 2% FCS. The multiplicity of infection (MOI: number of viral particles per target cell) was based on cell counts of untreated wells. Fresh, complete medium with the appropriate concentration of FCS was then added to the wells at the end of the infection period and cells were then incubated for 20 hours at 37° C., 5% CO2. After washing the cells with ice cold PBS, the cells were fixed with ice-cold 1.25% glutaraldehyde and stained with X-gal (5-bromo-4-chloro-3-indolyl-β-d-galactoside; Gibco BRL) as previously described (MacGregor et al., 1987). The transduction efficiency by Adv/CMV/β-gal was determined by the percentage of positive stained cells (blue) for β-galactosidase activity (1000 cells counted per well).
Time Course and Dose Response: To determine the time course of enhancement, H1299 and H460 cells were seeded in 6-well plates (2×10^5 cells/2 mls/well). After an overnight incubation period (37° C., 5% CO2), the initial medium was replaced with freshly prepared media (2 ml) containing 0.062 μg/ml CDDP (Sigma Chemicals, St. Louis, Mo.) (CDDP was prepared fresh by dissolving in distilled water) and the cells were then incubated for 24 hours at 37° C., with 5% CO2. CDDP-treated cells were then washed twice with PBS and subsequently infected with Ad/CMV/β-gal (MOI=1 for H1299 and MOI=5 for H460) on days 0, 1, 2, 3, 4, 5 or 6 following CDDP removal, to determine the time point at which maximal enhancement of expression was occurring. To establish the dose of CDDP needed to produce maximum enhancement, the cells were treated with different concentrations of CDDP (serial, 1:4 dilutions, ranging from 4 μg/ml to 0.0002 μg/ml, 5 ml per 60 mm dish) for 24 hours and subsequently incubated with Ad/CMV/β-gal 48 hours after removal of CDDP. To study if exposure of malignant cells to different classes of antineoplastic agents would lead to a similar elevation of gene expression, H1299 cells were treated with vincristine (Eli Lilly and Co, Indianapolis, Ind.), methotrexate (Lederle Pharmaceuticals, Pearl River, N.Y.), 5-fluorouracil (SoloPak Laboratories, Elk Grove Village, Ill.), epotoside (Bristol Laboratories, Princeton, N.J.) and transplatin (the isomer of CDDP that has no anticancer activity, Sigma Chemical, St. Louis, Mo.) in the similar fashion as CDDP treatment and then infected with Ad/CMV/β-gal 48 hours after removal of drug-containing media. H1299 cells were treated with 2, 4, 8, or 16 Grey (Gy) of ionizing irradiation and then similarly infected 72 hours after irradiation. Untreated cells that were similarly infected, served as controls.

Compound | Enhancement of β-gal expression (FIG. 3) (drugs at 0.062 μg/ml or irradiated with 8 Greys, stained 24 hrs after infection) | Enhancement of β-gal gene expression after treatment with antineoplastic agent
COc1cc([C@@H]2c3cc4c(cc3[C@@H](O[C@@H]3O[C@@H]5CO[C@@H](C)O[C@H]5[C@H](O)[C@H]3O)[C@H]3COC(=O)[C@H]23)OCO4)cc(OC)c1O [VP-16, etoposide] | Enhancement of β-gal expression was observed | enhanced gene expression
CC[C@]1(O)C[C@H]2CN(CCc3c([nH]c4ccccc34)[C@@](C(=O)OC)(c3cc4c(cc3OC)N(C=O)[C@H]3[C@@](O)(C(=O)OC)[C@H](OC(C)=O)[C@]5(CC)C=CCN6CC[C@]43[C@@H]65)C2)C1 [vincristine] | – | did not result in enhanced gene expression
N.N.[Cl][Pt+2][Cl] [transplatinum] | – | did not result in enhanced gene expression
O=c1[nH]cc(F)c(=O)[nH]1 [5-fluorouracil] | – | did not result in enhanced gene expression
CN(Cc1cnc2nc(N)nc(N)c2n1)c1ccc(C(=O)N[C@@H](CCC(=O)O)C(=O)O)cc1 [methotrexate] | – | did not result in enhanced gene expression
